pIC50: −log10 of the molar value. Where a name gives a salt, the structure may show the parent alone. Read-outs that look alike come from different tables or passages of the source.
Key:
in vivo = conditions: mouse, ip; for LD50 at 168 h: read-out: Acute toxicity LD50
Experimental: The LD50 values were determined by a standard method from the mortality occurring within 7 days in NMRI (Naval Medical Research Institute) mice (6 animals per dose) after a single intraperitoneal (i.p.) administration.

adjuvant arthritis = assay: Adjuvant arthritis (method of Pearson), reduction in the increase in paw volume; format: in vivo, male rats of a Wistar-Lewis strain; conditions: Rattus norvegicus, po; for inhibition in vivo at 50 mg/kg: 50 mg/kg p.o., once daily day 1 to day 5, rats; for inhibition in vivo at 12.5 mg/kg: * 12.5 mg/kg p.o.; for ED50: read-out: ED50 in adjuvant arthritis
Source text: 1. […] The experimental animals used were male rats of a Wistar-Lewis strain having a body weight between 130 and 200 g. […] The animals in a control group received only the vehicle. Each preparation and control group comprised 8 animals. The criterion for action was the percentage reduction in the increase in paw volume compared to that of the untreated control group.

[1] = Acute gastral ulcerogenity; design: species or system male Sprague-Dawley rats; conditions: rat, in vivo, po
Experimental: 2. Acute gastral ulcerogenity
The investigation took place on 10 male Sprague-Dawley rats whose gastric mucous membrane had been sensitized by hunger stress. The body weight of the animals was between 200 and 300 g. While allowing free access to the drinking water, the feed was withdrawn from the animals 48 hours before administration of the test preparations until sacrifice of the animals. The rats were sacrificed 24 hours after oral substance administration, and the stomachs were removed, cleaned under running water and inspected for mucous membrane lesions. All macroscopically visible lesions were regarded as ulcers. The number of animals having ulcers was determined for each dose, and the UD50 values, i.e. the doses at which lesions were caused in 50% of the animals, were calculated from these figures by the method of Litchfield and Wilcoxon (J. Pharmacol. Exp. Ther. 96 (1949), p. 99).

5-lipoxygenase = target: T1, 5-lipoxygenase (Homo sapiens, UniProt P09917); assay: Inhibition of 5-lipoxygenase: LTB4 formation in isolated polymorphonuclear human granulocytes; format: cell-based; conditions: ionophor A 23 187, LTB4 by HPLC, 37° C.
T1 construct: in-vitro experiments on isolated polymorphonuclear human granulocytes; endogenous in cells; host or cells: isolated human polymorphonuclear granulocytes
T1 sequence (P09917 1-674): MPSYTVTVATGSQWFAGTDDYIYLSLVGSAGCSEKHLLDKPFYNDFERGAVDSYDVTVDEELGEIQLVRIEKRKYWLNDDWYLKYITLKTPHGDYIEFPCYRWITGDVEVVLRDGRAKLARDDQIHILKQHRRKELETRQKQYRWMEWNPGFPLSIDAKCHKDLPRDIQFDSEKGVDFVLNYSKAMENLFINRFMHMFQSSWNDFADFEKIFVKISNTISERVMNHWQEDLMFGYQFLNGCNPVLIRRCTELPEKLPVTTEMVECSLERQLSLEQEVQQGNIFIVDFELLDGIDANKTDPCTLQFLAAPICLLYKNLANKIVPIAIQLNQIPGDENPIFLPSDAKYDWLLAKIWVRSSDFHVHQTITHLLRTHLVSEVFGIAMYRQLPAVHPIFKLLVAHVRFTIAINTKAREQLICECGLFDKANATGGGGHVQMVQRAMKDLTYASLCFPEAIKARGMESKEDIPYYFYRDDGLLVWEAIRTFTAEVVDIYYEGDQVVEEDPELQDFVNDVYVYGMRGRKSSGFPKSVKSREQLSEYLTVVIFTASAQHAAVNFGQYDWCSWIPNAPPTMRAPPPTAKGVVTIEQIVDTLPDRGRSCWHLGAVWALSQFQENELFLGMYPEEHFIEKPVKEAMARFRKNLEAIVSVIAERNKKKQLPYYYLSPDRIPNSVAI
Experimental: 5. Inhibition of 5-lipoxygenase
The inhibitory action of the compounds according to the invention of 5-lipoxygenase-catalysed degradation of arachidonic acid was determined, as usual, in in-vitro experiments on isolated polymorphonuclear human granulocytes. To this purpose, the cells were incubated at 37° C. with the particular test preparation and the formation of pro-inflammatoryleukotriene B4 (LTB4) was induced after 5 minutes using the calcium ionophor A 23 187 (Calbiochem GmbH, Frankfurt/Main, FRG, Biochemical and Immunochemical Catalog 1985, p. 284). The amount of LTB4 liberated over a period of 10 minutes was determined quantitatively with the aid of a UV detector after separation by means of high-pressure liquid chromatography (HPLC).

acetic acid stretching = assay: Analgesic action: acetic acid stretching test; format: in vivo, female mice of a NMRI strain; conditions: Mus musculus, 0.25 h; oral dose of 158 mg/kg, mice; read-out: Animals relieved of pain in %
Experimental: The analgesic action of the compounds of the formula I according to the invention was tested by means of the acetic acid stretching test on mice by the method of R. Koster et al., Fed. Prod. 18 (1959), p. 412.
The experimental animals used were female mice of a NMRI strain having a body weight (BW) between 21 and 28 g. Groups of 12 animals each received 0.1 ml/10 g of BW of a 0.6% strength acetic acid solution injected intraperitoneally. The test substances were administered 30 minutes beforehand. Immediately after the injection of acetic acid, the animals were placed alone and the number of typical stretching movements occurring within 15 minutes were counted, which comprise a brief tensing of the stomach muscles including the flank parts and subsequent stretching of the rear body and at least one read extremity.
The test substances were administered orally in a volume of 10 ml/kg of BW in a 1% strength aqueous carboxymethylcellulose (CMC) suspension.

[2] = test system: Adriamycin-induced inflammation; assay: Antioxidative action: inhibition of Adriamycin (doxorubicin) induced inflammation; format: in vivo, male Sprague-Dawley rats; conditions: for Increase in paw volume: after 72 hours, control 390; for Protective effect against Adriamycin-induced tissue destruction (in words): rats, oral
Source text: 4. Antioxidative action According to current opinion, aggressive oxygen radicals, which are formed to excess during the chronic inflammation process and, as highly toxic inflammation mediators themselves, perpetually maintain the connective tissue destruction proceeding via irreversible lipid peroxidation of the cell membranes, participate prominently in the progressive course, caused by a number of factors, of rheumatoid arthritis and other inflammatory disorders. As a result, antioxidatively active pharmaceuticals which are capable of deactivating these extremely cytotoxic oxygen radicals should allow specific intervention in the chronic course of the inflammation. A suitable animal model for this type of tissue destruction caused by oxygen radicals is Adriamycin (doxorubicin) induced inflammation in rats. The investigations were carried out by the method of D. M. Siegel et al. (Inflammation 4 (1980), p. 233) on male Sprague-Dawley rats having a body weight of between 200 and 230 g in groups each with 7 animals, which received 0.1 mg of Adriamycin, dissolved in 0.1 ml of 0.9% strength sodium chloride solution, by subcutaneous injection into the left rear paw. The increase in paw volume after 72 hours was determined by plethysmography measurement as a measure of the degree of inflammation. The test preparations were administered orally once daily on the 4 successive days, starting with the day of Adriamycin injection, in a 1% strength aqueous carboxymethylcellulose suspension.

[3] = single i.p., NMRI mice, mortality within 7 days
[4] = 50 mg/kg p.o., *Significance p <0.05

Row | Structure (SMILES) | LD50 at 168 h (in vivo) [mg/kg] | inhibition in vivo at 50 mg/kg (adjuvant arthritis) [%] | TD50 at 24 h [1] [mg/kg] | responders at 158 mg/kg (acetic acid stretching) [%] | other results
1 | CN1CCN(C2=NN=C(c3cc(C(C)(C)C)c(O)c(C(C)(C)C)c3)CS2)CC1 [Example 20] | 150 to 300 | 72 | 200 |  | 
2 | CCN(C)C1=NN=C(c2cc(C(C)(C)C)c(O)c(C(C)(C)C)c2)CS1 [Example 8] | 300 to 600 |  | > 200 | 92 | inhibition in vivo at 12.5 mg/kg (adjuvant arthritis; rats): 61%; pIC50 (5-lipoxygenase): 4.89
3 | CCN(C1=NN=C(c2cc(C(C)(C)C)c(O)c(C(C)(C)C)c2)CS1)C(C)C [Example 10] | > 1200 | 82 | 200 |  | 
4 | CNC1=NN=C(c2cc(C(C)(C)C)c(O)c(C(C)(C)C)c2)CS1 [Example 4, 5-(3,5-di-tert.butyl-4-hydroxyphenyl)-2-methylamino-6H-1,3,4-thiadiazine-hydrochloride] |  | 81 | 100 to 200 | 83 | LD50 at 168 h (in vivo; [3]): 300 to 600 mg/kg
5 | Cc1cc(C2=NN=C(N(C)C)SC2)cc(C(C)(C)C)c1O [Example 3, 5-(5-tert.butyl-3-methyl-4-hydroxyphenyl)-2-dimethylamino-6H-1,3,4-thiadiazine hydrobromide] |  | 58 | > 200 | 42 | LD50 at 168 h (in vivo; [3]): 600 to 1200 mg/kg; pIC50 (5-lipoxygenase): 5.40
6 | CC(C)(C)c1cc(C2=NN=C(NCc3ccccc3)SC2)cc(C(C)(C)C)c1O [Example 12] | 600 to 1200 | 65 | > 200 |  | 
7 | CCCN(CCC)C1=NN=C(c2cc(C(C)(C)C)c(O)c(C(C)(C)C)c2)CS1 [Example 11] | > 1200 | 54 | 100 to 200 |  | 
8 | CC1CCN(C2=NN=C(c3cc(C(C)(C)C)c(O)c(C(C)(C)C)c3)CS2)CC1 [Example 2, 5-(3,5-di-tert.butyl-4-hydroxyphenyl)-2-(4-methylpiperidino)-6H-1,3,4-thiadiazine hydrobromide] |  | 62 | 100 | 75 | LD50 at 168 h (in vivo; [3]): 600 to 1200 mg/kg
9 | C=CCNC1=NN=C(c2cc(C(C)(C)C)c(O)c(C(C)(C)C)c2)CS1 [Example 14] | 600 to 1200 | 75 | > 200 | 67 | Protective action ([2]; 25 mg/kg p.o.): 36%; Increase in paw volume ([2]; 25 mg/kg p.o.): 250 µL; Protective action [2, 4]: 59%; Increase in paw volume ([2]; 50 mg/kg p.o.): 160 µL; Protective effect against Adriamycin-induced tissue destruction (in words) [2]: strong, dose-dependent protective effect
10 | CC(C)(C)c1cc(C2=NN=C(N3CCCC3)SC2)cc(C(C)(C)C)c1O [Example 17] |  |  |  |  | pIC50 (5-lipoxygenase): 5.00
11 | CC(C)(C)c1cc(C2=NN=C(N3CCCCC3)SC2)cc(C(C)(C)C)c1O [Example 18] | > 1200 | 74 | 100 |  | 
12 | CN(C)C1=NN=C(c2cc(C(C)(C)C)c(O)c(C(C)(C)C)c2)CS1 [Example 1, 5-(3,5-di-tert.butyl-4-hydroxyphenyl)-2-dimethylamino-6H-1,3,4-thiadiazinehydrobromide] | 600 to 1200 |  | 200 | 83 | selectivity ratio (in vivo; LD50 (i.p. mice) divided by ED50 (adjuvant arthritis, rats), read-out: LD50/ED50 quotient): ~150; inhibition in vivo at 12.5 mg/kg (adjuvant arthritis; rats): 69%; ED50 (adjuvant arthritis; from the dose/action curve, p.o., rats): 6 mg/kg; selectivity ratio [1]: ~33; pIC50 (5-lipoxygenase): 5.05; Protective action ([2]; 25 mg/kg p.o.): 10%; Increase in paw volume ([2]; 25 mg/kg p.o.): 350 µL; Protective action [2, 4]: 69%; Increase in paw volume ([2]; 50 mg/kg p.o.): 120 µL; Protective effect against Adriamycin-induced tissue destruction (in words) [2]: strong, dose-dependent protective effect
13 | COc1ccc2cc(C(C)C(=O)O)ccc2c1 (stereo not shown) [naproxen, 2-(6-methoxy-2-naphthyl)-propionic acid, reference compound] |  | 55 |  |  | ED50 (adjuvant arthritis): 17.5 mg/kg; Protective effect against Adriamycin-induced tissue destruction (in words) [2]: ineffective
14 | CN(Cc1ccccc1)C1=NN=C(c2cc(C(C)(C)C)c(O)c(C(C)(C)C)c2)CS1 [Example 13] | 600 to 1200 | 71 | > 200 | 42 | 
15 | CCN(CC)C1=NN=C(c2cc(C(C)(C)C)c(O)c(C(C)(C)C)c2)CS1 [Example 9] | 600 to 1200 |  | > 200 |  | inhibition in vivo at 12.5 mg/kg (adjuvant arthritis; rats): 55%
16 | CC1SC(N(C)C)=NN=C1c1cc(C(C)(C)C)c(O)c(C(C)(C)C)c1 (stereo not shown) [Example 22] | 600 to 1200 |  | > 200 | 92 | inhibition in vivo at 12.5 mg/kg (adjuvant arthritis; rats): 84%
